Source: patent publication US20090088380A1, “GHRH ANALOGS AND THERAPEUTIC USES THEREOF” (priority 2007, published 2009)
Several values for one entry are separate records, joined by “and”; a condition that tells them apart may be missing. Identical values can stand only once. Non-standard residues stand in square brackets, D forms with d. Residues, ends and D or L forms follow the SMILES beside them.

Key:
[1] = tested on: malnourished subjects with CKD; experiment: Phase II CKD: biochemical markers of nutritional and metabolic state (plasma proteins, glucose control, lipids); type: in vivo, human
Procedure: Plasma proteins were measured as markers for renal disease and malnourishment. Blood samples were analysed locally. Albumin (g/L) were measured at screening, baseline and on Day 28. Blood samples for measurement of pre-albumin (g/L) were collected at baseline, Day 14 and Day 28. Transferrin (g/L) was measured at baseline, Day 7, Day 14 and Day 28.
HbA1c (%) was measured at screening and Day 28 as a marker for long-term glucose control. Fasting insulin (μunits/mL) and fasting glucose (mmol/L) were measured at baseline, Day 7, Day 14 and Day 28 as markers for short-term glucose control.
Fasting triglyceride (mmol/L) and fasting cholesterol (mmol/L) were measured at baseline, Day 7, Day 14 and Day 28 as markers for lipid metabolism.

[2] = tested on: malnourished subjects with CKD; experiment: Phase II CKD: hormones (TSH, free thyroxin, testosterone, oestradiol); type: in vivo, human; conditions: ITT
Procedure: A blood sample was taken at screening for analysis of TSH and free thyroxin. […] The hormones testosterone (nmol/L) and oestradiol (nmol/L) were measured at baseline and on Day 28 because those could be affected by GH and could lead to secondary changes in body composition. Samples were analysed locally.

protein turnover = experiment: Phase II, malnourished CKD subjects, 1 mg sc twice daily 28 days: 13C-leucine kinetics (protein turnover); type: in vivo, human; conditions: for Leucine oxidation: adjusted mean difference (analog-placebo): Day 28; for Leucine flux: mean (SD): normalised with body weight
Procedure: This was a randomized, double-blind, placebo-controlled, parallel-group, multi-centre study of the GHRH(1-29)NH2 synthetic analog in malnourished subjects with CKD. Twenty-six subjects were required to complete the study.
All study subjects were randomised in equal numbers to receive active GHRH(1-29)NH2 synthetic analog or an equivalent volume of placebo, by sc injection, twice daily for 28 days.
Vials of investigational product contained 1.4 mg of the GHRH(1-29)NH2 synthetic analog. This was reconstituted with 0.7 mL of water for injection and 0.5 mL of the resultant solution (1.0 mg of active substance) was administered, i.e. approximately 15 μg/kg. The diluent, water for injections, was obtained from commercial stock and labelled accordingly.
Leucine kinetics was measured on Day 0 and Day 29 by a primed-constant infusion technique during substrate and isotopic steady state. The priming dose consisted of 4.0 μmol/kg of L[1−^13C] leucine and 0.11 mg/kg of NaH^13CO3 and a sustaining infusion rate of L[1−^13C] leucine of 4.0 μmol/kg/h for 4 hours. The isotopes were purchased directly from Cambridge Isotope Laboratories.
A 1 mL sample of venous blood was taken before administration of the dose of isotope and at 180, 195, 210, 225 and 240 minutes after the start of infusion.
Breath samples were provided by blowing through a straw into Exetainer® tubes (evacuated 139 B blue tops). Breath samples were collected before the dose of isotope and at 180, 195, 210, 225 and 240 minutes after the start of infusion. Duplicate samples were collected. One sample was sent for analysis; the other was retained in case of loss or breakage. All retained samples were destroyed once the database was locked.

[3] = In vitro proteolysis assay in human serum; type: in vitro ADME
Procedure: Proteolysis was stopped by adding 800 μl of ice-cold stop buffer (potassium-phosphate buffer, acidified to pH 0.8 with trifluoroacetic acid (TFA) and boiling 5 min (rat serum only). After centrifugation (12000 g, 5 min, 4° C.) (rat serum only), serum-peptide mixtures were passed through a conditioned Sep-Pak C-18 cartridge to extract native GHRH or a GHRH analog residual concentrations from serum proteins. The native GHRH or the analog was eluted in 2 ml of 50% acetonitrile-0.01% TFA/50% 0.01% aqueous TFA. 200 μl of extracted peptide, representing 1 μg of GHRH or analog at time 0, was quantified by analytical HPLC, using one μ-Bondapak C18 column (10 μm particle size, 0.39×15 cm) (rat serum) or two C18 columns in series (human serum and plasma) and a binary solvent system composed of NaClO4 0.01 M, pH 2.5 and acetonitrile. A linear gradient from 30 to 60% acetonitrile over 45 min (rat serum) or 30 to 50% (human serum and plasma) was used. Elution of intact peptide was monitored at 214 nm and residual concentration determined by assessment of peak surface areas.

Sprague-Dawley rats = conditions: rat, in vivo
Procedure: In order to assess such use of the GHRH analogs, the following experiments were undertaken. More specially, the goal was to assess the pharmacodynamic and pharmacokinetic profiles and acute toxicity of GHRH analog #5 when administered once by subcutaneous or intravenous injection to female Sprague-Dawley rats followed by a 14-day observation period and the pharmacodynamic profile in a male Beagle dog when the GHRH analog was administered at escalating doses to the same dog by subcutaneous injection with at least 2-day washout period. The above GHRH analog is a variation of a synthetic acetate salt of an amidated synthetic 29-amino acid peptide that corresponds to the amino-terminal segment of the naturally-occurring human growth hormone—releasing hormone (GHRH) with four amino acid substitutions in positions 2, 10, 15, and 22.
Human GHRH analog #5 in 0.9% sodium chloride for injection USP was administered once either by intravenous (IV) or subcutaneous (SC) injection to female rats followed by a 14-day observation period, as shown in Table 2. Prior to administration, all dosing formulations were filtered using a 0.22 μm filter to ensure sterility. The actual amount of GHRH analog #5 administered was calculated and adjusted based on the animal's most recent body weight. Dosing started at approximately the same time each day, commencing at 9:00 am ±30 minutes.

[4] = Day 0, listed as GHRH(1-29)NH2 synthetic analog
[5] = Day 28, listed as GHRH(1-29)NH2 synthetic analog
[6] = ITT, Baseline, listed as GHRH(1-29)NH2 synthetic analog
[7] = ITT, listed as GHRH(1-29)NH2 synthetic analog

For `CC[C@H](C)[C@H](NC(=O)[C@H](C)NC(=O)[C@H](CC(=O)O)NC(=O)[C@@H](C)NC(=O)[C@@H](N)Cc1ccc(O)cc1)C(=O)N[C@@H](Cc1ccccc1)C(=O)N[C@H](C(=O)N[C@@H](CC(N)=O)C(=O)N[C@@H](CO)C(=O)N[C@H](Cc1ccc(O)cc1)C(=O)N[C@@H](CCCNC(=N)N)C(=O)N[C@@H](CCCCN)C(=O)N[C@H](C(=O)N[C@@H](CC(C)C)C(=O)N[C@H](C)C(=O)N[C@@H](CCC(N)=O)C(=O)N[C@@H](CC(C)C)C(=O)N[C@@H](CO)C(=O)N[C@@H](C)C(=O)N[C@@H](CCCNC(=N)N)C(=O)N[C@@H](CCCCN)C(=O)N[C@@H](CCCCN)C(=O)N[C@@H](CC(C)C)C(=O)N[C@@H](CCC(N)=O)C(=O)N[C@@H](CC(=O)O)C(=O)N[C@H](C(=O)N[C@@H](CCSC)C(=O)N[C@@H](CO)C(=O)N[C@@H](CCCNC(=N)N)C(N)=O)[C@@H](C)CC)C(C)C)[C@@H](C)O` [GHRH analog #5, [D-Ala^2, D-Tyr^10, D-Ala^15, Lys^22] hGHRH(1-29)-NH2] (H-Y[dA]DAIFTNS[dY]RKVL[dA]QLSARKKLQDIMSR-NH2), the “Fasting cholesterol: mean difference (GHRH-Placebo)” value ([1]; ITT) was −0.58, the “Albumin: median” value ([1]; ITT, Baseline) was 41.0 g/L and the “Fasting glucose: median” value ([1]; ITT, Baseline) was 5.1 mmol/L. The “Fasting insulin: median” value ([1]; ITT, Baseline) was 8.4 μ units/mL, the “Fasting triglycerides: median” value ([1]; ITT, Baseline) was 1.40 mmol/L and the “Pre-albumin: mean (SD)” value ([1]; ITT, Baseline) was 0.216 (0.088) g/L. The “Transferrin: mean (SD)” value ([1]; ITT, Baseline) was 2.202 (0.315) g/L, the “Albumin: median” value ([1]; ITT, Day 28) was 40.4 g/L and the “Fasting glucose: median” value ([1]; ITT, Day 28) was 5.4 mmol/L. The “Fasting insulin: median” value ([1]; ITT, Day 28) was 12.1 μ units/mL, the “Fasting triglycerides: median” value ([1]; ITT, Day 28) was 1.98 mmol/L and the “HbA1c: median” value ([1]; ITT, Day 28) was 5.606%. For the same compound, the “Pre-albumin: mean (SD)” value ([1]; ITT, Day 28) was 0.201 (0.103) g/L, the “Transferrin: mean (SD)” value ([1]; ITT, Day 28) was 2.383 (0.370) g/L and the “Fasting cholesterol: median” value ([1]; ITT, Day 28, listed as GHRH(1-29)NH2 synthetic analog) was 4.69 mmol/L. The “HbA1c: median” value ([1]; ITT, Screening) was 5.516%, the “Fasting glucose: ratio of means” value ([1]; ITT, vs placebo) was 1.030 and the “Fasting insulin: ratio of means” value ([1]; ITT, vs placebo) was 1.79 and 1.788. For the same compound, the “Fasting triglycerides: ratio of means” value ([1]; ITT, vs placebo) was 1.199, the “Pre-albumin: comparison or ratio of means” value ([1]; ITT, vs placebo) was −0.093 and the “Transferrin: comparison or ratio of means” value ([1]; ITT, vs placebo) was 0.06. The “Fasting insulin: median” value ([1]; day 7) was 14.2 μunits/ml, the “Fasting insulin: median” value ([1]; day 14) was 15.5 μunits/ml and the “Reduction of mean cholesterol in almost all patients (10/12)” value ([1]; in vivo) was “up to 10%”. The “Oestradiol: mean (SD)” value ([2]; Day 0) was 30.400 (23.333) pg/mL, the “Testosterone: mean (SD)” value ([2]; Day 0) was 1.550 (1.974) ng/mL and the “Oestradiol: mean (SD)” value [2, 4] was 30.400 pg/mL. For the same compound, the “Testosterone: mean (SD)” value [2, 4] was 1.550 ng/mL, the “Oestradiol: mean (SD)” value ([2]; Day 28) was 16.281 (10.896) pg/mL and the “Testosterone: mean (SD)” value ([2]; Day 28) was 1.032 (1.327) ng/mL. For the same compound, the “Oestradiol: mean (SD)” value [2, 5] was 16.281 pg/mL, the “Testosterone: mean (SD)” value [2, 5] was 1.032 ng/mL and the “Leucine flux: mean (SD) change from baseline to Day 28” value (protein turnover; ITT) was 1.15 (30.09) μmol/kg · hr. The “Leucine flux: median change from baseline to Day 28” value (protein turnover; ITT) was -0.4 µmol/kg/h, the “Leucine oxidation: mean (SD) change from baseline to Day 28” value (shortened to “Leucine oxidation: mean (SD) change”) (protein turnover; ITT) was 2.38 (5.66) μmol/kg · hr and the “Leucine oxidation: median change from baseline to Day 28” value (protein turnover; ITT) was 2.3 µmol/kg/h. The “Oxidation of flux: mean (SD) change from baseline to Day 28” value (protein turnover; ITT) was 2.64 (6.26) %, the “Oxidation of flux: median change from baseline to Day 28” value (protein turnover; ITT) was 3.8% and the “Protein breakdown: mean (SD) change from baseline to Day 28” value (protein turnover; ITT) was 1.16 (30.11) μmol/kg · hr. The “Protein breakdown: median change from baseline to Day 28” value (protein turnover; ITT) was -0.4 µmol/kg/h, the “Protein synthesis of flux: mean (SD) change from baseline to Day 28” value (protein turnover; ITT) was −2.64 (6.26) % and the “Protein synthesis of flux: median change from baseline to Day 28” value (protein turnover; ITT) was −3.8%. The “Protein synthesis: mean (SD) change from baseline to Day 28” value (protein turnover; ITT) was −1.22 (30.75) μmol/kg · hr, the “Protein synthesis: median change from baseline to Day 28” value (protein turnover; ITT) was -4.6 µmol/kg/h and the “Leucine flux: median” value (protein turnover; ITT, Baseline) was 98.3 µmol/kg/h. For the same compound, the “Leucine oxidation: mean (SD)” value (protein turnover; ITT, Baseline) was 7.74 μmol/kg · hr and 7.74 (4.51) μmol/kg · hr, the “Leucine oxidation: median” value (protein turnover; ITT, Baseline) was 5.8 µmol/kg/h and the “Oxidation of flux: mean (SD)” value (protein turnover; ITT, Baseline) was 7.61 (4.19) %. The “Oxidation of flux: median” value (protein turnover; ITT, Baseline) was 6.9%, the “Protein breakdown: mean (SD)” value (protein turnover; ITT, Baseline) was 97.45 (21.53) μmol/kg · hr and the “Protein breakdown: median” value (protein turnover; ITT, Baseline) was 94.2 µmol/kg/h. The “Protein synthesis of flux: mean (SD)” value (protein turnover; ITT, Baseline) was 92.39 (4.19) %, the “Protein synthesis of flux: median” value (protein turnover; ITT, Baseline) was 93.1% and the “Protein synthesis: mean (SD)” value (protein turnover; ITT, Baseline) was 93.71 (20.38) μmol/kg · hr. For the same compound, the “Protein synthesis: median” value (protein turnover; ITT, Baseline) was 88.9 µmol/kg/h, the “Leucine oxidation: mean (SD)” value (protein turnover; [6]) was 7.74 µmol/kg/h and the “Protein breakdown: mean (SD)” value (protein turnover; [6]) was 97.45 µmol/kg/h. For the same compound, the “Protein synthesis: mean (SD)” value (protein turnover; [6]) was 93.71 µmol/kg/h, the “Leucine oxidation: adjusted mean difference (analog-placebo)” value (protein turnover; ITT) was 1.1 μmol/kg · hr and the “Leucine flux: mean (SD) change from baseline to Day 28” value (protein turnover; [7]) was 1.15 µmol/kg/h. The “Leucine oxidation: mean (SD) change” value (protein turnover; [7]) was 2.38 µmol/kg/h, the “Protein breakdown: mean (SD) change from baseline to Day 28” value (protein turnover; [7]) was 1.16 µmol/kg/h and the Protein synthesis of flux: median change from baseline to Day 28 (protein turnover; [7]) was -3.8%. The Protein synthesis: mean (SD) change from baseline to Day 28 (protein turnover; [7]) was -1.22 µmol/kg/h, the “Leucine flux: mean (SD)” value (protein turnover; ITT, Baseline) was 101.46 (21.54) μmol/kg · hr and the “Leucine flux: mean (SD)” value (protein turnover; [6]) was 101.46 µmol/kg/h. The “Leucine flux: adjusted mean difference” value (protein turnover; ITT, vs placebo) was 7.5 µmol/kg/h, the “Protein breakdown: adjusted mean difference” value (protein turnover; ITT, vs placebo) was 7.5 µmol/kg/h and the “Protein synthesis: adjusted mean difference” value (protein turnover; ITT, vs placebo) was 6.9 µmol/kg/h. For the same compound, the “Oxidation of flux: adjusted mean difference” value (protein turnover; ITT, vs placebo, ANCOVA assuming log-normal distribution) was 1.48%, the “Leucine oxidation: mean (SD) change” value (protein turnover; PP (Leucine Kinetic)) was 1.90 (6.24) μmol/kg · hr and the “Leucine oxidation: median change from baseline to Day 28” value (protein turnover; PP (Leucine Kinetic)) was 2.3 µmol/kg/h. The “Leucine oxidation: mean (SD)” value (protein turnover; PP (Leucine Kinetic), Baseline) was 7.81 (5.42) μmol/kg · hr, the “Leucine oxidation: median” value (protein turnover; PP (Leucine Kinetic), Baseline) was 5.6 µmol/kg/h and the “Leucine oxidation: adjusted mean difference (analog-placebo)” value (protein turnover; PP (Leucine Kinetic)) was 3.3 μmol/kg · hr. For the same compound, the “R2 (60 min)” value ([3]; 60-min incubation in human serum) was 1.55 ± 0.04, the “R2 (180 min)” value ([3]; 180-min incubation in human serum) was 2.93 ± 0.87 and the “Mean residual amount (%)” value ([3]; human serum, IT 0 min) was 100%. The Treatment-related clinical signs (Sprague-Dawley rats) was “No treatment-related clinical signs were observed”.
